Measurements reported in US10307418B2, “Azole pharmaceutical formulations for parenteral administration and methods for preparing and using the same as treatment of diseases sensitive to azole compounds” (Platform Brightworks Two, Ltd., priority 2010, dated 2019).
≈ marks a conversion by molar mass, not a printed value. Like-named read-outs stand apart in the source and are kept apart here.

Columns and labels:
[1] = Maximum solubility of ITZA and azole analogues in solvents (HPLC); assay type: physicochemical; conditions: for solubility thermodynamic at 1 h: within 1 hour at RT, read-out: Maximum equilibrium solubility
Method: ITZA and its analogues were dissolved in various solvents incubated at 37° C. for 30 minutes, cooled down to room temperature, centrifuged at 14,000 rpm for 1 min. The supernatant was analyzed using HPLC to determine the maximum solubility of ITZA and its azole analogues.
In a first step the maximum ITZA solubility in various single solvents was determined. To this end, ITZA and its analogs were dissolved in various solvents, incubated at 37° C. for 30 minutes, cooled down to room temperature, centrifuged at 14,000 rpm for 1 min. The supernatant was analyzed using HPLC to determine the maximum solubility of the respective agent.
The solubility of ITZA was determined in several individual vehicles. Briefly, a known amount of ITZA drug, formulated as a powder (Sigma Inc., St Louis, Mo.), was equilibrated in the respective solvent at RT over 1-4 hours. An aliquot was removed, filtered, and prepared for HPLC to determine maximum solubility at room temperature. Based on the ITZA solubility in each vehicle, different solvents were mixed according to the cosolvency principle in an attempt to arrive at an enhanced stable solubility. […] The stock formulation was then diluted with a final diluent, i.e. NS or D5W or DlOW, to yield a stable use-formulation. The desired range of the final use-formulation was between 1 and 5 mg/mL, as it would result in a final volume that could be safely and conveniently infused intravascularly.
An excess of ITZA as a powder was added to a multitude of chemical solvents (Table 1) at RT. Each mixture was intermittently vortexed, placed in a dark environment and checked visually for up to 4 hours for evidence of solubilization. Following centrifugation to remove solid particles, small samples were withdrawn after consecutive time intervals and the ITZA concentration was determined by HPLC as described.

[2] = Stability of ITZA/POSA in solvent vehicles (HPLC); assay type: physicochemical
Method: The ITZA in solvent H3 was incubated in sealed tubes. […] For both short-term and long-term stability studies, triplicate samples at various time points were analyzed quantitatively by HPLC after appropriate dilutions. In the next step the stability of ITZA (at approximately 4 mg/mL) in a preferred composite solvent at a clinically relevant stock concentration by itself, and after dilution with a similar volume of a clinically acceptable infusion fluid, was determined at room temperature. ITZA was dissolved at a final stock concentration of 2-6 mg/mL in benzyl alcohol with acidified EtOH/PEG-400 (prototype ITZA stock solvent vehicle) and incubated at RT and at 40° C. The resulting ITZA concentrations were measured by HPLC in samples taken immediately after solubilization, then hourly for 8 hours, and then at gradually increasing time intervals for up to several days (weeks), depending on the initial rate of solubilization/degradation in the respective solvent system.

[3] = tested on: Candida cruzei (ATCC strain 6258); test: Yeast susceptibility test, MIC (CLSI standard); assay type: cell-based; conditions: tested range 38 μg/mL to 0.03 μg/mL, read out at 24 hours, average of three experiments
Method: (§1) Briefly, susceptibility tests were set-up using a standardized methodology (CLSI […] standard). Drugs were diluted into RPMI-Mops medium (Yeast One Broth (Sensititer, product Y3462, Trek Diagnostic Systems, Cleveland, Ohio) Sensititer Lot number 151416SA-expiration date 2011-01). Two different strains of yeast were tested, the standardized evaluation/read out was performed at 24 hours after the start of each culture. The tests were repeated twice and all MIC (minimum inhibitory concentration) values are reported as an average of the three experiments.

Candida parapsilosis = test: Yeast susceptibility test, MIC (CLSI standard); assay type: cell-based; conditions: tested range 38 μg/mL to 0.03 μg/mL, read out at 24 hours, average of three experiments
Method: as §1

in vivo = conditions: both, Swiss Webster, mouse, plasma, iv, 5 mg/kg
Method: (§2) Swiss Webster mice were used for pharmacokinetic studies of ITZA and its analogs. The dilation of the vein was accomplished by warming up the mice using a heat lamp. […] Mice were allowed to recover and blood samples were obtained through cardiac puncture under general anesthesia with Isoflurane/oxygen by vaporizer at various time points. Plasma was obtained by centrifugation of blood sample at 3,200 rpm for 5 min. at 4° C. Plasma proteins were precipitated by adding acetonitrile (twice the volume of plasma). The mixture was vortexed for 30 seconds and centrifuged for 5 min. at 14,000 rpm. The supernatant was saved and was injected into the HPLC to determine the respective drug concentrations.
(§3) Unless specified, the analogous experiments were performed using POSA as an alternative to ITZA; Swiss Webster mice of both sexes with a body weight of 25-30 g were used for the in vivo pharmacology experiments (Harlan-Sprague-Dawley, Houston, Tex.). The animals were allowed a minimum of 7 days after arrival to accommodate to the new environment and allowed free access to commercial feed and tap water prior to and during the experimentation period. The animals were housed in an Association for the Assessment and Accreditation of Laboratory Animal Care International (AAALAC)-approved facility that meets the requirements of the USDA, NIH, and DHHS.
(§4) The ITZA dose of 5 mg/kg BW was determined to be a suitable test dose that could be administered to the mice as a slow (3-4 min) IV bolus injection without requiring sedation, but could be performed with only minimal physical restraint of the animals in a standard funnel-type cage.
(§5) The ITZA was formulated in the H3 solvent system described above as the preferred solvent to a stock concentration of 4-5 mg/mL and then diluted with NS (ratio 1:1) so the intended dose (5.0 mg/kg BW) could be injected in a tail vein in a total volume of approximately 100 μL. […] No sedative premedication was used for the mice in this experiment to avoid the possible induction of microsomal liver enzymes that could modify ITZA metabolism. Thus, the animals were unanesthetized, being only physically restrained during and immediately following the drug injection.
(§6) Blood samples (0.5-1.0 mL) were drawn through cardiac puncture into heparinized tubes at selected time points prior to the drug infusion (“blank”), and from 5 min to 1 hour after drug injection for determination of ITZA concentrations, and for 5 min to about 7 hrs in the POSA experiment. The mice were exposed to 2% -4% isoflurane for general anesthesia. Blood samples were obtained through cardiac puncture and immediately deposited in heparinized microcentrifuge tubes.

[4] = tested on: Zygomycete (Clinical Lab isolate, MDACC); test: Extended mold testing, MIC (CLSI M38A); assay type: cell-based; conditions: H3 final use-formulation, range 75 μg/mL to 0.07 μg/mL, 48 hr, read-out: MIC
Description: To further determine the antifungal activity of the compounds in the new formulation systems we investigated the efficacy of the various agents against additional strains of mucor and Aspergillus (9/-16-9/20/2010) (The Rhizomucor was a clinical isolate from a patient isolate) and the Aspergillus fumigatus (ATCC strain 90906) used was a repeat from the previously described experiment. Again, the susceptibility tests were set-up using the standardized test method (CLSI M38A). The used drugs were provided in the described H3 final use-formulation that has been previously described. All drugs were diluted in RPMI-Mops medium (YeastOne, Sensititer Lot 151416SA, expiration date January 2011).
As before two different molds were tested with a standard read out at 48 hr: • Drug dilution range 75 μg/mL to 0.07 μg/mL. • Aspergillus fumigatus (ATCC strain 90906) Zygomycete (Clinical Lab isolate, MDACC)

[5] = Plasma pharmacology after IV injection in mice; conditions: IV dose of 5 mg/kg
Method: as §2, §3, §4, §5, §6

[6] = cited from earlier work

Compound `CCC(C)n1ncn(-c2ccc(N3CCN(c4ccc(OCC5COC(Cn6cncn6)(c6ccc(Cl)cc6Cl)O5)cc4)CC3)cc2)c1=O` (stereo not shown) [ITZA, itraconazole] has a solubility ([1]; 2M citric acid, aqueous buffer, thermodynamic from solid, in 2M citric acid, read-out: Maximum solubility) of 3220 µg/mL (≈ 4.56 mM), a solubility ([1]; 6N HCl, aqueous buffer, thermodynamic from solid, in 6N HCl, read-out: Maximum solubility) of 7410 µg/mL (≈ 10.5 mM) and a solubility ([1]; 25% acetic acid, aqueous with cosolvent or surfactant or cyclodextrin, thermodynamic from solid, in 25% Acetic acid, read-out: Maximum solubility) of 300 µg/mL (≈ 0.425 mM). The solubility ([1]; 50% acetic acid, aqueous with cosolvent or surfactant or cyclodextrin, thermodynamic from solid, in 50% Acetic acid, read-out: Maximum solubility) was 12900 µg/mL (≈ 18.3 mM), the solubility ([1]; Intralipid, oil or lipid, thermodynamic from solid, in Intralipid, read-out: Maximum solubility) was 150 µg/mL (≈ 0.213 mM) and the solubility ([1]; PEG 200, organic solvent or mixture, thermodynamic from solid, in PEG 200, read-out: Maximum solubility) was 1450 µg/mL (≈ 2.05 mM). For the same compound, the solubility ([1]; PEG 300, organic solvent or mixture, thermodynamic from solid, in PEG 300, read-out: Maximum solubility) was 1810 µg/mL (≈ 2.57 mM), the solubility ([1]; PEG 400, organic solvent or mixture, thermodynamic from solid, in PEG 400, read-out: Maximum solubility) was 2510 µg/mL (≈ 3.56 mM) and the solubility ([1]; acetic acid, organic solvent or mixture, thermodynamic from solid, in Acetic acid, read-out: Maximum solubility) was 144000 µg/mL (≈ 205 mM). The solubility ([1]; benzyl alcohol, organic solvent or mixture, thermodynamic from solid, in Benzyl alcohol, read-out: Maximum solubility) was > 128000 µg/mL, the “Solubility (in words)” value ([1]; diluted acetic acid, H2O, Normal saline, 5% Dextrose, Polyoxyethylated castor oil, Propylene glycol, 2 M citric acid, Ethanol, HCl, PEG400, Intralipid) was “insignificant solubility” and the solubility ([1]; ethanol, organic solvent or mixture, thermodynamic from solid, in Ethanol, read-out: Maximum solubility) was 410 µg/mL (≈ 0.581 mM). It also gave a Maximum solubility ([1]; in 10% Acetic acid) of 860 µg/mL, a Maximum solubility ([1]; in Polyoxyethylated castor oil) of 890 µg/mL and a solubility ([1]; normal saline, saline or isotonic, thermodynamic from solid, in Normal saline, read-out: Maximum solubility) of 480 µg/mL (≈ 0.68 mM). For the same compound, the solubility ([1]; organic solvent or mixture, thermodynamic from solid, benzyl alcohol containing solvent H3, room temp, read-out: Maximum solubility) was ~31400 µg/mL (≈ 44.5 mM), the solubility thermodynamic at 1 h ([1]; organic solvent or mixture, thermodynamic from solid, Benzyl alcohol) was > 100000 µg/mL and the solubility thermodynamic at 1 h ([1]; organic solvent or mixture, thermodynamic from solid, pure (glacial) acetic acid) was > 100000 µg/mL. It also gave a solubility ([1]; propylene glycol, organic solvent or mixture, thermodynamic from solid, in Propylene glycol, read-out: Maximum solubility) of 140 µg/mL (≈ 0.198 mM), a solubility ([1]; solvent B (with Tween 80), aqueous with cosolvent or surfactant or cyclodextrin, thermodynamic from solid, solvent B (with Tween 80), read-out: Maximum solubility) of 29000 µg/mL (≈ 41.1 mM) and a solubility at 30 min ([1]; solvent H3D (no benzyl alcohol), organic solvent or mixture, thermodynamic from solid, solvent H3D (no benzyl alcohol), single determination, read-out: Azole solubility, [Drug] mg/mL) of 19.1 mg/mL (≈ 27.1 mM). The solubility at 30 min ([1]; solvent H3D (no benzyl alcohol), organic solvent or mixture, thermodynamic from solid, solvent H3D (no benzyl alcohol), read-out: Azole solubility, Average mg/mL) was 19 mg/mL (≈ 26.9 mM), the “Azole solubility, [Drug] mg/mL” value ([1]; solvent H3D (no benzyl alcohol), single determination) was 18.9 mg/mL and the solubility at 30 min ([1]; solvent H3G (no benzyl alcohol), organic solvent or mixture, thermodynamic from solid, solvent H3G (no benzyl alcohol), single determination, read-out: Azole solubility, [Drug] mg/mL) was 19.2 mg/mL (≈ 27.2 mM). For the same compound, the solubility at 30 min ([1]; solvent H3G (no benzyl alcohol), organic solvent or mixture, thermodynamic from solid, solvent H3G (no benzyl alcohol), read-out: Azole solubility, Average mg/mL) was 19.3 mg/mL (≈ 27.4 mM), the “Azole solubility, [Drug] mg/mL” value ([1]; solvent H3G (no benzyl alcohol), single determination) was 19.4 mg/mL and the solubility ([1]; solvent J1, organic solvent or mixture, thermodynamic from solid, solvent J1, read-out: Solubility) was 18100 µg/mL (≈ 25.7 mM). It also gave a solubility ([1]; solvent J2) of 15990 µg/mL (≈ 22.7 mM), a solubility ([1]; solvent J3) of 10110 µg/mL (≈ 14.3 mM) and a solubility ([1]; solvent J4, organic solvent or mixture, thermodynamic from solid, solvent J4, read-out: Solubility) of 6090 µg/mL (≈ 8.63 mM). It also gave a solubility ([1]; solvent J5, organic solvent or mixture, thermodynamic from solid, solvent J5, read-out: Solubility) of 3540 µg/mL (≈ 5.02 mM), a solubility ([1]; solvent K, organic solvent or mixture, thermodynamic from solid, solvent K, RT, read-out: Maximum solubility) of 11100 µg/mL (≈ 15.7 mM) and a Maximum solubility ([1]; solvent L) of 5000 µg/mL. For the same compound, the “Stability (% remaining)” value ([2]; 2 mg/mL, normal saline as final dilution solution, at least 24 hours at RT) was “more than 90%”, the stability of ITZA ([2]; H3D/5% dex., day 3) was 108% and the stability of ITZA ([2]; H3D/sal., day 4) was 102%. For the same compound, the stability of ITZA ([2]; H3G/10% dex., day 1) was 102%, the “Stability (%)” value ([2]; parent solvent H3, approximately 4 mg/mL, room temperature, 48 hrs) was 96% and the “Stability (%)” value ([2]; parent solvent H3, approximately 4 mg/mL, room temperature, 7 days (1 w)) was 91%. The “Stability (%)” value ([2]; parent solvent H3, approximately 4 mg/mL, room temperature, 9 days) was 84%, the “Stability (%)” value ([2]; parent solvent H3, approximately 4 mg/mL, room temperature, 18 days) was 80% and the “Stability (%)” value ([2]; solvent H3, approximately 4 mg/mL, 40° C., 72 hr) was 76%. The “Stability (%)” value ([2]; solvent H3, approximately 4 mg/mL, 40° C., 10 days) was 59%, the “Stability (%)” value ([2]; solvent H3, approximately 4 mg/mL, 40° C., 11 days) was 58% and the “Stability (%)” value ([2]; solvent H3, approximately 4 mg/mL, 40° C., time 0) was 100%. For the same compound, the “Stability (%)” value ([2]; solvent H3/normal saline (1:1), approximately 2.0 mg/mL, RT, 6 hrs) was 101%, the MIC [3] was 0.07 µg/mL (≈ 9.92e-05 mM) and the MIC ([3]; listed as ITZA*) was 0.15 µg/mL (≈ 0.000213 mM). For the same compound, the MIC (Candida parapsilosis) was 0.03 µg/mL (≈ 4.25e-05 mM), the MIC (Candida parapsilosis; listed as ITZA*) was 0.07 µg/mL (≈ 9.92e-05 mM) and the half-life (in vivo) was ~30 min. The MIC [4] was 2.5 µg/mL (≈ 0.00354 mM), the “time plasma concentrations remain in the fungi-toxic range” value [5] was “in excess of one hour” and the known plasma half-life ([6]; literature (Ref 24, 32, 42, 45)) was 600 to 660 min. For the same compound, the bioavailability ([6]; oral preparations, literature) was “approximately 50%”.
